Reference: ChEMBL document CHEMBL3885881, “DrugMatrix”

Species: Rattus norvegicus
Assay: DrugMatrix - Regimen: Daily Repeat
Format: toxicity, organism-based, Sprague-Dawley
Set-up: regimen Daily Repeat, gender Male, age 6-8 weeks
Details: in vivo, po, route oral GAVAGE, […]; for ABSOLUTE BASOPHIL / ABSOLUTE EOSINOPHIL / ABSOLUTE LYMPHOCYTE / ABSOLUTE MONOCYTE / ABSOLUTE SEGMENTED NEUTROPHIL / BASOPHIL / EOSINOPHIL / ERYTHROCYTE COUNT / HEMATOCRIT / HEMOGLOBIN / LEUKOCYTE COUNT / LYMPHOCYTE / MEAN CORPUSCULAR HEMOGLOBIN / MEAN CORPUSCULAR HEMOGLOBIN CONCENTRATION / MEAN CORPUSCULAR VOLUME / MONOCYTE / NEUTROPHIL / NUCLEATED RED BLOOD CELLS / PLATELET COUNT: tissue Blood; for ALANINE AMINOTRANSFERASE / ALBUMIN / ALKALINE PHOSPHATASE / ASPARTATE AMINOTRANSFERASE / BLOOD UREA NITROGEN / CARBON DIOXIDE / CHLORIDE / CHOLESTEROL / CREATINE PHOSPHOKINASE / CREATININE / GLUCOSE / LACTATE DEHYDROGENASE / LIPASE / PHOSPHORUS / POTASSIUM / SODIUM / TOTAL BILIRUBIN / TOTAL PROTEIN / URIC ACID: tissue Plasma
[1] = 0 mg/kg, 72 h, dose level Control, time 3 day
[2] = 0 mg/kg, 120 h, dose level Control, time 5 day
[3] = 4 mg/kg, 72 h, dose level Low, time 3 day

With `CSc1ccc2c(c1)N(CCC1CCCCN1C)c1ccccc1S2` (centres undefined) [THIORIDAZINE] the “ABSOLUTE BASOPHIL” value [1] was 0 CELLS/uL, the “ABSOLUTE EOSINOPHIL” value [1] was 179.67 CELLS/uL and the “ABSOLUTE LYMPHOCYTE” value [1] was 11440.17 CELLS/uL. For the same compound, the “ABSOLUTE MONOCYTE” value [1] was 128.83 CELLS/uL, the “ABSOLUTE SEGMENTED NEUTROPHIL” value [1] was 1051.33 CELLS/uL and the BASOPHIL [1] was 0%. The EOSINOPHIL [1] was 1.33%, the “ERYTHROCYTE COUNT” value [1] was 5.53 x10E6/uL and the HEMATOCRIT [1] was 34.75%. For the same compound, the HEMOGLOBIN [1] was 12.88 G/DL, the “LEUKOCYTE COUNT” value [1] was 12.8 x10E3/uL and the LYMPHOCYTE [1] was 89.5%. The “MEAN CORPUSCULAR HEMOGLOBIN” value [1] was 23.38 pg, the “MEAN CORPUSCULAR HEMOGLOBIN CONCENTRATION” value [1] was 37.12 G/DL and the “MEAN CORPUSCULAR VOLUME” value [1] was 62.88 fL. For the same compound, the MONOCYTE [1] was 1%, the NEUTROPHIL [1] was 8.17% and the “NUCLEATED RED BLOOD CELLS” value [1] was 0 /100WBC. The “PLATELET COUNT” value [1] was 1292 x10E3/uL, the “ALANINE AMINOTRANSFERASE” value [1] was 58.67 u/L and the ALBUMIN [1] was 4.25 G/DL. For the same compound, the “ALKALINE PHOSPHATASE” value [1] was 437.83 u/L, the “ASPARTATE AMINOTRANSFERASE” value [1] was 85.17 u/L and the “BLOOD UREA NITROGEN” value [1] was 14.17 mg/dL. For the same compound, the “CARBON DIOXIDE” value [1] was 28.67 mmol/L, the CHLORIDE [1] was 102.17 MEQ/L and the CHOLESTEROL [1] was 68.5 mg/dL. For the same compound, the “CREATINE PHOSPHOKINASE” value [1] was 271.83 u/L, the CREATININE [1] was 0.2 mg/dL and the GLUCOSE [1] was 156.67 mg/dL. The “LACTATE DEHYDROGENASE” value [1] was 112.33 u/L, the LIPASE [1] was 9.33 u/L and the PHOSPHORUS [1] was 11.1 mg/dL. For the same compound, the POTASSIUM [1] was 6.46 MEQ/L, the SODIUM [1] was 144.37 MEQ/L and the “TOTAL BILIRUBIN” value [1] was 0.23 mg/dL. For the same compound, the “TOTAL PROTEIN” value [1] was 5.8 G/DL, the “URIC ACID” value [1] was 1.55 mg/dL and the “ABSOLUTE BASOPHIL” value [2] was 0 CELLS/uL. The “ABSOLUTE EOSINOPHIL” value [2] was 87 CELLS/uL, the “ABSOLUTE LYMPHOCYTE” value [2] was 14743.5 CELLS/uL and the “ABSOLUTE MONOCYTE” value [2] was 187 CELLS/uL. The “ABSOLUTE SEGMENTED NEUTROPHIL” value [2] was 1499.17 CELLS/uL, the BASOPHIL [2] was 0% and the EOSINOPHIL [2] was 0.5%. The “ERYTHROCYTE COUNT” value [2] was 5.84 x10E6/uL, the HEMATOCRIT [2] was 36.3% and the HEMOGLOBIN [2] was 13.55 G/DL. For the same compound, the “LEUKOCYTE COUNT” value [2] was 16.52 x10E3/uL, the LYMPHOCYTE [2] was 89.5% and the “MEAN CORPUSCULAR HEMOGLOBIN” value [2] was 23.25 pg. The “MEAN CORPUSCULAR HEMOGLOBIN CONCENTRATION” value [2] was 37.35 G/DL, the “MEAN CORPUSCULAR VOLUME” value [2] was 62.27 fL and the MONOCYTE [2] was 1.17%. For the same compound, the NEUTROPHIL [2] was 8.83%, the “NUCLEATED RED BLOOD CELLS” value [2] was 0.17 /100WBC and the “PLATELET COUNT” value [2] was 1233.5 x10E3/uL. The “ALANINE AMINOTRANSFERASE” value [2] was 62.5 u/L, the ALBUMIN [2] was 4.17 G/DL and the “ALKALINE PHOSPHATASE” value [2] was 464.33 u/L. For the same compound, the “ASPARTATE AMINOTRANSFERASE” value [2] was 99.67 u/L, the “BLOOD UREA NITROGEN” value [2] was 14.33 mg/dL and the “CARBON DIOXIDE” value [2] was 26 mmol/L. The CHLORIDE [2] was 102.33 MEQ/L, the CHOLESTEROL [2] was 60.67 mg/dL and the “CREATINE PHOSPHOKINASE” value [2] was 402.5 u/L. For the same compound, the CREATININE [2] was 0.22 mg/dL, the GLUCOSE [2] was 173.5 mg/dL and the “LACTATE DEHYDROGENASE” value [2] was 518.17 u/L. It also gave an LIPASE [2] of 10.83 u/L, a PHOSPHORUS [2] of 11.4 mg/dL and a POTASSIUM [2] of 6.13 MEQ/L. The SODIUM [2] was 142.63 MEQ/L, the “TOTAL BILIRUBIN” value [2] was 0.17 mg/dL and the “TOTAL PROTEIN” value [2] was 6.1 G/DL. The “URIC ACID” value [2] was 1.97 mg/dL, the “ABSOLUTE BASOPHIL” value [3] was 0 CELLS/uL and the “ABSOLUTE EOSINOPHIL” value [3] was 0 CELLS/uL. For the same compound, the “ABSOLUTE LYMPHOCYTE” value [3] was 12903.67 CELLS/uL, the “ABSOLUTE MONOCYTE” value [3] was 46 CELLS/uL and the “ABSOLUTE SEGMENTED NEUTROPHIL” value [3] was 817 CELLS/uL. The BASOPHIL [3] was 0%, the EOSINOPHIL [3] was 0% and the “ERYTHROCYTE COUNT” value [3] was 5.52 x10E6/uL. For the same compound, the HEMATOCRIT [3] was 35.4%, the HEMOGLOBIN [3] was 13.13 G/DL and the “LEUKOCYTE COUNT” value [3] was 13.77 x10E3/uL. For the same compound, the LYMPHOCYTE [3] was 93.67%, the “MEAN CORPUSCULAR HEMOGLOBIN” value [3] was 23.8 pg and the “MEAN CORPUSCULAR HEMOGLOBIN CONCENTRATION” value [3] was 37.1 G/DL. For the same compound, the “MEAN CORPUSCULAR VOLUME” value [3] was 64.17 fL, the MONOCYTE [3] was 0.33% and the NEUTROPHIL [3] was 6%. For the same compound, the “NUCLEATED RED BLOOD CELLS” value [3] was 0 /100WBC, the “PLATELET COUNT” value [3] was 1132.33 x10E3/uL and the “ALANINE AMINOTRANSFERASE” value [3] was 50 u/L. For the same compound, the ALBUMIN [3] was 4.1 G/DL, the “ALKALINE PHOSPHATASE” value [3] was 495.33 u/L and the “ASPARTATE AMINOTRANSFERASE” value [3] was 79.67 u/L. For the same compound, the “BLOOD UREA NITROGEN” value [3] was 12 mg/dL, the “CARBON DIOXIDE” value [3] was 28.67 mmol/L and the CHLORIDE [3] was 101.67 MEQ/L. For the same compound, the CHOLESTEROL [3] was 70.67 mg/dL, the “CREATINE PHOSPHOKINASE” value [3] was 382.67 u/L and the CREATININE [3] was 0.17 mg/dL. The GLUCOSE [3] was 176.33 mg/dL, the “LACTATE DEHYDROGENASE” value [3] was 65.33 u/L and the LIPASE [3] was 9.67 u/L. The PHOSPHORUS [3] was 11.5 mg/dL, the POTASSIUM [3] was 6.31 MEQ/L and the SODIUM [3] was 142.93 MEQ/L. The “TOTAL BILIRUBIN” value [3] was 0.2 mg/dL, the “TOTAL PROTEIN” value [3] was 5.57 G/DL and the “URIC ACID” value [3] was 1.93 mg/dL.
